Reference: ChEMBL document CHEMBL5325423, “Discovery of 7H-Pyrrolo[2,3-d]pyrimidine Derivatives as potent hematopoietic progenitor kinase 1 (HPK1) inhibitors” (Eur J Med Chem, 2023)
Values belong to the compound of their own block, whether it stands above or below them.

What was measured:
[1] = biological target: T1, Mitogen-activated protein kinase kinase kinase kinase 1 (Homo sapiens, UniProt Q92918); experiment: Inhibition of HPK1 (unknown origin)
[2] = biological target: T1, Mitogen-activated protein kinase kinase kinase kinase 1; experiment: Inhibition of human HPK1 in human Jurkat T cells assessed as inhibition of SLP76 phosphorylation
[3] = biological target: T1, Mitogen-activated protein kinase kinase kinase kinase 1; experiment: Inhibition of human HPK1 using myelin basic protein and [gamma33P]ATP as substrate incubated for 40 mins in presence of Mg/ATP by radiometric scintillation counting analysis
[4] = biological target: Tyrosine-protein kinase Fyn (Homo sapiens) (UniProt P06241); experiment: Inhibition of FYN (unknown origin) assessed as remaining activity at 1 uM relative to control
[5] = biological target: Mitogen-activated protein kinase 8 (Homo sapiens) (UniProt P45983); experiment: Inhibition of JNK1 (unknown origin) assessed as remaining activity at 1 uM relative to control
[6] = biological target: ALK tyrosine kinase receptor (Homo sapiens) (UniProt Q9UM73); experiment: Inhibition of ALK (unknown origin) at 1 uM
ALK tyrosine kinase receptor (Homo sapiens), sequence (Q9UM73 19-1620 limits assumed): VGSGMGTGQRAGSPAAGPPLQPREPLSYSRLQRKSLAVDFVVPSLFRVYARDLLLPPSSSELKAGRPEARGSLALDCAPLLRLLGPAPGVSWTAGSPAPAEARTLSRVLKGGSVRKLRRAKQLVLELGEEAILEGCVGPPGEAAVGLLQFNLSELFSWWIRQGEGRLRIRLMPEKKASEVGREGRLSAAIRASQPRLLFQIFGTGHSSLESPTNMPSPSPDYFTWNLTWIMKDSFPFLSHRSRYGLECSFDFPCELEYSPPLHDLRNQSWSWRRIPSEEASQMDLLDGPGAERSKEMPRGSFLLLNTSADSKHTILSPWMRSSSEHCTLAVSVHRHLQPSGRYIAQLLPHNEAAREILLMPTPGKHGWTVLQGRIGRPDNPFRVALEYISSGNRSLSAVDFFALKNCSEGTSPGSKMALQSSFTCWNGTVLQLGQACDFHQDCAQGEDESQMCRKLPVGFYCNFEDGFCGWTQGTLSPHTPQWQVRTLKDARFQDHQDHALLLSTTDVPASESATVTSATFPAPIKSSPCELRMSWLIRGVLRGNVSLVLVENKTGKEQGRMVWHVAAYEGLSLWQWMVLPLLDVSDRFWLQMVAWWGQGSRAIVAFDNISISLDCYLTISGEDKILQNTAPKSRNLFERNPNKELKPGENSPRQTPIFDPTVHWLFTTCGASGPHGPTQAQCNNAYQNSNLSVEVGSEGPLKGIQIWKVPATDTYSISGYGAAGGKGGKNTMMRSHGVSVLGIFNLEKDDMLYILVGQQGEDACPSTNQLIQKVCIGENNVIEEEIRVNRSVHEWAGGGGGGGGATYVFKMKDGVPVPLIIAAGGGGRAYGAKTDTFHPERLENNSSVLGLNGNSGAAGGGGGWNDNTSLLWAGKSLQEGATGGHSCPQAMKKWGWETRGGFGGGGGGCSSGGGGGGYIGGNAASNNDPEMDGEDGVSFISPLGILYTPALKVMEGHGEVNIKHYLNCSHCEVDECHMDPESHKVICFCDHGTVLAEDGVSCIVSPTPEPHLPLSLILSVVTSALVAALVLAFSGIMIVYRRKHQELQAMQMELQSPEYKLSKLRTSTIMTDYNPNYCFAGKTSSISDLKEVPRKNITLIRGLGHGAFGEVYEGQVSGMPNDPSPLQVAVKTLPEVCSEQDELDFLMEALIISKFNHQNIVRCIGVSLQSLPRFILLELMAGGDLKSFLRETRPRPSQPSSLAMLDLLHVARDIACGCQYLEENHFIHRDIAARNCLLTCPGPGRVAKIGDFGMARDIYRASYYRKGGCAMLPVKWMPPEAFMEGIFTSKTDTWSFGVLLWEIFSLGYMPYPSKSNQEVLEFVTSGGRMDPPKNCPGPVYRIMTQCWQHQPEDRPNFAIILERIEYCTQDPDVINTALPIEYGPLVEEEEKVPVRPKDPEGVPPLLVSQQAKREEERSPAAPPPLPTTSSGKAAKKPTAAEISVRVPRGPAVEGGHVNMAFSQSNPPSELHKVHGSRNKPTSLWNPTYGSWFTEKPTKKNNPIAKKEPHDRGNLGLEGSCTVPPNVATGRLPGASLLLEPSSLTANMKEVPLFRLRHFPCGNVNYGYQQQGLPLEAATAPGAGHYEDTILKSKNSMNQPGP

[7] = biological target: Tyrosine-protein kinase SYK (Homo sapiens) (UniProt P43405); experiment: Inhibition of SYK (unknown origin) assessed as remaining activity at 1 uM relative to control
[8] = biological target: Mitogen-activated protein kinase 10 (Homo sapiens) (UniProt P53779); experiment: Inhibition of JNK3 (unknown origin) assessed as remaining activity at 1 uM relative to control
[9] = biological target: Tyrosine-protein kinase JAK1 (Homo sapiens) (UniProt P23458); experiment: Inhibition of JAK1 (unknown origin) assessed as remaining activity at 1 uM relative to control
[10] = biological target: Mitogen-activated protein kinase 9 (Homo sapiens) (UniProt P45984); experiment: Inhibition of JNK2 (unknown origin) assessed as remaining activity at 1 uM relative to control
[11] = biological target: Tyrosine-protein kinase receptor UFO (Homo sapiens) (UniProt P30530); experiment: Inhibition of AXL (unknown origin) assessed as remaining activity at 1 uM relative to control
[12] = biological target: Receptor-type tyrosine-protein kinase FLT3 (Homo sapiens) (UniProt P36888); experiment: Inhibition of FLT3 (unknown origin) assessed as remaining activity at 1 uM relative to control
[13] = biological target: T1, Mitogen-activated protein kinase kinase kinase kinase 1; experiment: Inhibition of human HPK1 in anti-human CD3 stimulated human Jurkat T cells assessed as inhibition of SLP76 phosphorylation preincubated for 10 mins followed by anti-human CD3 stimulation and measured after 60 mins by Western blot analysis; type: cell-based
[14] = biological target: Epidermal growth factor receptor (Homo sapiens) (UniProt P00533); experiment: Inhibition of EGFR (unknown origin) assessed as remaining activity at 1 uM relative to control
[15] = biological target: Tyrosine-protein kinase JAK3 (Homo sapiens) (UniProt P52333); experiment: Inhibition of JAK3 (unknown origin) assessed as remaining activity at 1 uM relative to control
[16] = biological target: Tyrosine-protein kinase ABL1 (Homo sapiens) (UniProt P00519); experiment: Inhibition of ABL (unknown origin) assessed as remaining activity at 1 uM relative to control
[17] = biological target: Leucine-rich repeat serine/threonine-protein kinase 2 (Homo sapiens) (UniProt Q5S007); experiment: Inhibition of LRRK2 (unknown origin) at 1 uM
Leucine-rich repeat serine/threonine-protein kinase 2 (Homo sapiens), sequence (Q5S007 whole entry): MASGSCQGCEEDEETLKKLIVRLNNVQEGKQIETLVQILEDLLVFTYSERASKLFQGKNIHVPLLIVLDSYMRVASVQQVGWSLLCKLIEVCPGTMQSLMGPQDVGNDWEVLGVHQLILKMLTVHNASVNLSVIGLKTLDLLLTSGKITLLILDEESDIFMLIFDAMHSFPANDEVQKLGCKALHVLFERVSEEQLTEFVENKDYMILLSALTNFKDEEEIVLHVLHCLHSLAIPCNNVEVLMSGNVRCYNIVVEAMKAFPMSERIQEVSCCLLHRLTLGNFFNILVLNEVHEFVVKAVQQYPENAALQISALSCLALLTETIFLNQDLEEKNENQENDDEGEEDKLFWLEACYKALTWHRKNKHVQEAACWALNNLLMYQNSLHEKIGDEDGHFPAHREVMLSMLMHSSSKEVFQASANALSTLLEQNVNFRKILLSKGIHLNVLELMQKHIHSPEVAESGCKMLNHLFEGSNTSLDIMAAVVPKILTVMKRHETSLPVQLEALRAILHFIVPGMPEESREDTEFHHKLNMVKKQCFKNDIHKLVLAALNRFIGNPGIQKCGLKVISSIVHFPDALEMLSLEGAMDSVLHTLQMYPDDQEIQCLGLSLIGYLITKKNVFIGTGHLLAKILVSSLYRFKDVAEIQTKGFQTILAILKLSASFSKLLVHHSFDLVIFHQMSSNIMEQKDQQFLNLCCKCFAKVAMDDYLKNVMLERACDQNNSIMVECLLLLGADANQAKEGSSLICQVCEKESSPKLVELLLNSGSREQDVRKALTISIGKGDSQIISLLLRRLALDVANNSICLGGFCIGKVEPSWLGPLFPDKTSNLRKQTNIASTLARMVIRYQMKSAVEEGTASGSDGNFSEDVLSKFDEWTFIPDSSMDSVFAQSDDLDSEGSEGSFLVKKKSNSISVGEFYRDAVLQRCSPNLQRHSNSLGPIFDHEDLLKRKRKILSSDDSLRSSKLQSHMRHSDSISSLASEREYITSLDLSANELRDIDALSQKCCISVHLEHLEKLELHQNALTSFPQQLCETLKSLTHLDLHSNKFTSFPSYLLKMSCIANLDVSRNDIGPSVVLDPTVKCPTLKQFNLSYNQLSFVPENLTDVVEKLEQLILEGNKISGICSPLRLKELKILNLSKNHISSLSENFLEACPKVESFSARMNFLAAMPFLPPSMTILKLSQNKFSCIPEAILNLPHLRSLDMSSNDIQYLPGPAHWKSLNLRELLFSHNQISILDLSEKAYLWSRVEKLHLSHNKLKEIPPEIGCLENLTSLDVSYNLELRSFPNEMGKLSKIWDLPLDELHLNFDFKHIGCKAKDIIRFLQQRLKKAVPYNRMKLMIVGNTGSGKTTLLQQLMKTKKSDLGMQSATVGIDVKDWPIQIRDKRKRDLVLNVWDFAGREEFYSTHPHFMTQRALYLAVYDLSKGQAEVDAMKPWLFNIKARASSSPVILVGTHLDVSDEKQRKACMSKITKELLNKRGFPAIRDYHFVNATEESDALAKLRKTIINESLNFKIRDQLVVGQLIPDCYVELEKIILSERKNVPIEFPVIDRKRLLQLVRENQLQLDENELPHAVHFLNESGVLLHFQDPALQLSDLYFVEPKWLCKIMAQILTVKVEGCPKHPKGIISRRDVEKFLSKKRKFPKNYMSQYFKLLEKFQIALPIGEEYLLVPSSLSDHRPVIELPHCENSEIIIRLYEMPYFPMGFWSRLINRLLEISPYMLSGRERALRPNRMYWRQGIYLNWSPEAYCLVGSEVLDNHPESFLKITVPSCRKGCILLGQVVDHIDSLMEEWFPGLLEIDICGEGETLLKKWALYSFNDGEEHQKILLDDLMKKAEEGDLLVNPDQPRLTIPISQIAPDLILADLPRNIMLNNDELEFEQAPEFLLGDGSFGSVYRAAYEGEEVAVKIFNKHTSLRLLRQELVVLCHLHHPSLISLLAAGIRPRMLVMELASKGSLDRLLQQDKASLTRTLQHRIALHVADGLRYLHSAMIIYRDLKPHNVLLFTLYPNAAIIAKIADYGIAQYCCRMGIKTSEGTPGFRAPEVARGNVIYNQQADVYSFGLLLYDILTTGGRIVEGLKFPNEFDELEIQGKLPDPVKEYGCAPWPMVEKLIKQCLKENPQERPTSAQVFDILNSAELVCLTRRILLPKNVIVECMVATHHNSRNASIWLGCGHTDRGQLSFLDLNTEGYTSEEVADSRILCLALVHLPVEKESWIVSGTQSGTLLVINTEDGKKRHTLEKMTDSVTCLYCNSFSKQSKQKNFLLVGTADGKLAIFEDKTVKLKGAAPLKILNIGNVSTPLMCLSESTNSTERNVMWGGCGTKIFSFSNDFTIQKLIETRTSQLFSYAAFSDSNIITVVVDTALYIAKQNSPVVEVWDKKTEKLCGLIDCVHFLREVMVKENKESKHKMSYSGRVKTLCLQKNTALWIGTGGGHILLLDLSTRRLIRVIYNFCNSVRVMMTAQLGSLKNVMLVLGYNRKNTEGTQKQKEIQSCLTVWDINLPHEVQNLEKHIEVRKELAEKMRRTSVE

[18] = biological target: ALK tyrosine kinase receptor (Homo sapiens) (UniProt Q9UM73); experiment: Inhibition of ALK (unknown origin) assessed as remaining activity at 1 uM relative to control
[19] = biological target: Interleukin-1 receptor-associated kinase 4 (Homo sapiens) (UniProt Q9NWZ3); experiment: Inhibition of IRAK4 (unknown origin) assessed as remaining activity at 1 uM relative to control
[20] = biological target: Serine/threonine-protein kinase PAK 4 (Homo sapiens) (UniProt O96013); experiment: Inhibition of PAK4 (unknown origin) assessed as remaining activity at 1 uM relative to control
[21] = biological target: Tyrosine-protein kinase JAK2 (Homo sapiens) (UniProt O60674); experiment: Inhibition of JAK2 (unknown origin) assessed as remaining activity at 1 uM relative to control
[22] = biological target: Tyrosine-protein kinase BTK (Homo sapiens) (UniProt Q06187); experiment: Inhibition of BTK (unknown origin) assessed as remaining activity at 1 uM relative to control
[23] = biological target: Tyrosine-protein kinase ZAP-70 (Homo sapiens) (UniProt P43403); experiment: Inhibition of ZAP70 (unknown origin) assessed as remaining activity at 1 uM relative to control
[24] = biological target: Leucine-rich repeat serine/threonine-protein kinase 2 (Homo sapiens) (UniProt Q5S007); experiment: Inhibition of LRRK2 (unknown origin) assessed as remaining activity at 1 uM relative to control
[25] = biological target: Dual specificity protein kinase TTK (Homo sapiens) (UniProt P33981); experiment: Inhibition of TTK (unknown origin) assessed as remaining activity at 1 uM relative to control
[26] = biological target: T1, Mitogen-activated protein kinase kinase kinase kinase 1; experiment: Inhibition of human HPK1 in human Jurkat T cells assessed as increase in anti-human CD3 stimulated IL-2 secretion preincubated for 10 mins followed by anti-human CD3 stimulation and measured after 24 hrs by ELISA; type: cell-based
[27] = biological target: Interleukin-1 receptor-associated kinase 4 (Homo sapiens) (UniProt Q9NWZ3); experiment: Inhibition of IRAK4 (unknown origin) at 1 uM
[28] = biological target: Focal adhesion kinase 1 (Homo sapiens) (UniProt Q05397); experiment: Inhibition of FAK (unknown origin) assessed as remaining activity at 1 uM relative to control
[29] = biological target: Insulin-like growth factor 1 receptor (Homo sapiens) (UniProt P08069); experiment: Inhibition of IGF-1R (unknown origin) assessed as remaining activity at 1 uM relative to control
[30] = biological target: Tyrosine-protein kinase Lck (Homo sapiens) (UniProt P06239); experiment: Inhibition of LCK (unknown origin) assessed as remaining activity at 1 uM relative to control
[31] = biological target: T1, Mitogen-activated protein kinase kinase kinase kinase 1; experiment: Inhibition of wild type HPK1 (unknown origin) using FAM-FPQAAsLPPYFAKKK peptide as substrate in presence of ATP by caliper assay

T1 sequence (Q92918 whole entry): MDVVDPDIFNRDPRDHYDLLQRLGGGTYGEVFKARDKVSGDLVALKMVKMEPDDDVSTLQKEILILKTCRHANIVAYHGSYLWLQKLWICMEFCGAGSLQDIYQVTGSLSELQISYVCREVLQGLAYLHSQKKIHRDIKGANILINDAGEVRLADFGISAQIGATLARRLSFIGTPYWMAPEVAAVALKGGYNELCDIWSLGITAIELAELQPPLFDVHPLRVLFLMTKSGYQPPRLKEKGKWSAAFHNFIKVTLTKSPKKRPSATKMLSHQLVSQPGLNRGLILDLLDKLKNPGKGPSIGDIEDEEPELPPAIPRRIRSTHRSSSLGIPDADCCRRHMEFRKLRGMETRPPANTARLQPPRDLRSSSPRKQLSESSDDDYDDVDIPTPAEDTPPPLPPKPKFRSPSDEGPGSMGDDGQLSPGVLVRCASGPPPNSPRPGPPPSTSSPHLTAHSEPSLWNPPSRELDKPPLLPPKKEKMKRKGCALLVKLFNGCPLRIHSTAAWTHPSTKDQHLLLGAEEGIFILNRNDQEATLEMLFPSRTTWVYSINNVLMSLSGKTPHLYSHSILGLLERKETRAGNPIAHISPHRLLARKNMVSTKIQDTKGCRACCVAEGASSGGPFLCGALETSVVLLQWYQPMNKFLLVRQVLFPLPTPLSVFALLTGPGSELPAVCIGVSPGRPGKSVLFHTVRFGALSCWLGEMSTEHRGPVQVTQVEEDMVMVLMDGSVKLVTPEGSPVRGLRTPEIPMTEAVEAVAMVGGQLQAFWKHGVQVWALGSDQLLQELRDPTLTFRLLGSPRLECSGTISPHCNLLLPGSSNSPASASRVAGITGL

Compound: Cn1cc(Nc2ncc(C3=CCC[C@@H](NC(=O)c4ccccc4)C3)nc2C(N)=O)cn1
IC50 [1]: 86 nM
IC50 [2]: 150 nM

Compound: COc1cc2c(cc1Nc1nc(Nc3ccccc3S(=O)(=O)N3CCC(C)(C)CC3)c3cc[nH]c3n1)CN(C)CC2
IC50 [3]: 356 nM

Compound: COc1cc2c(cc1Nc1nc(Nc3ccccc3OC)c3cc[nH]c3n1)CN(C)CC2
IC50 [3]: 127 nM

Compound: COc1cc2c(cc1Nc1nc(Nc3ccccc3C)c3cc[nH]c3n1)CN(C)CC2
IC50 [3]: 454 nM

Compound: COc1cc2c(cc1Nc1nc(Nc3ccccc3S(=O)(=O)N3CC(C)(C)C3)c3cc[nH]c3n1)CN(C)CC2
IC50 [3]: 12.5 nM

Compound: COc1cc2c(cc1Nc1ncc(Cl)c(Nc3ccccc3P(C)(C)=O)n1)CN(C)CC2
IC50 [31]: < 5 nM

Compound: COc1cc(N2CCOCC2)ccc1Nc1nc(Nc2ccccc2S(=O)(=O)N(C)C)c2c(-c3cccnc3)c[nH]c2n1
IC50 [3]: 781 nM

Compound: CCCN(CCC)S(=O)(=O)c1ccccc1Nc1nc(Nc2cc3c(cc2OC)CCN(C)C3)nc2[nH]ccc12
IC50 [3]: 73 nM

Compound: COc1cc2c(cc1Nc1nc(Nc3ccccc3OC(C)C)c3cc[nH]c3n1)CN(C)CC2
IC50 [3]: 84 nM

Compound: COc1cc2c(cc1Nc1nc(Nc3ccccc3S(=O)(=O)N(C)C)c3c(-c4c(C)noc4C)c[nH]c3n1)CN(C)CC2
IC50 [3]: 42 nM

Compound: COc1cc2c(cc1Nc1nc(Nc3ccccc3S(=O)(=O)N3CCOCC3)c3cc[nH]c3n1)CN(C)CC2
IC50 [3]: 349 nM

Compound: COc1cc2c(cc1Nc1nc(Nc3ccccc3S(=O)(=O)N3CCC3)c3c(-c4cccnc4)c[nH]c3n1)CN(C)CC2
IC50 [3]: 45 nM

Compound: COc1cc2c(cc1Nc1nc(Nc3ccccc3C(C)(C)C)c3cc[nH]c3n1)CN(C)CC2
IC50 [3]: 386 nM

Compound: COc1cc2c(cc1Nc1nc(Nc3ccccc3S(=O)(=O)N(C)C)c3c(-c4ccccc4)c[nH]c3n1)CN(C)CC2
IC50 [3]: > 1000 nM

Compound: COc1cc2c(cc1Nc1nc(Nc3ccccc3F)c3cc[nH]c3n1)CN(C)CC2
IC50 [3]: 640 nM

Compound: COc1cc2c(cc1Nc1nc(Nc3ccccc3S(=O)(=O)N(C)C)c3c(-c4cnccc4C)c[nH]c3n1)CN(C)CC2
IC50 [3]: 14 nM

Compound: COc1ccc(CN(C)C)cc1Nc1nc(Nc2ccccc2S(=O)(=O)N(C)C)c2c(-c3cccnc3)c[nH]c2n1
IC50 [3]: 97.5 nM

Compound: COc1cc2c(cc1Nc1nc(Nc3ccccc3S(=O)(=O)N(C)C)c3c(-c4cccnc4)c[nH]c3n1)CN(C(C)C)CC2
IC50 [3]: 12 nM

Compound: COc1cc2c(cc1Nc1nc(Nc3ccccc3S(=O)(=O)N3CCCCC3)c3cc[nH]c3n1)CN(C)CC2
IC50 [3]: 17.5 nM

Compound: COc1cc2c(cc1Nc1nc(Nc3ccccc3S(=O)(=O)N(C)C)c3c(-c4ccc(N)nc4)c[nH]c3n1)CN(C)CC2
IC50 [3]: 12 nM

Compound: COc1cc2c(cc1Nc1nc(Nc3ccccc3S(=O)(=O)N(C)C)c3c(-c4cccnc4C)c[nH]c3n1)CN(C)CC2
IC50 [3]: 29.5 nM

Compound: COc1cc2c(cc1Nc1nc(Nc3ccccc3)c3cc[nH]c3n1)CN(C)CC2
IC50 [3]: 313 nM

Compound: COc1cc2c(cc1Nc1nc(Nc3ccccc3Cl)c3cc[nH]c3n1)CN(C)CC2
IC50 [3]: 631 nM

Continued, values first:

IC50 [3]: 2.5 nM
Compound: COc1cc2c(cc1Nc1nc(Nc3ccccc3S(=O)(=O)N(C)C)c3cc[nH]c3n1)CN(C)CC2

Activity [4]: > 50%
Activity [5]: > 50%
inhibition [6]: > 90%
Activity [7]: > 50%
Activity [8]: > 50%
Activity [9]: > 50%
Activity [10]: > 50%
Activity [11]: < 50%
Activity [12]: < 50%
IC50 [13]: 1210 nM
Activity [14]: > 50%
Activity [15]: > 50%
Activity [16]: > 50%
inhibition [17]: > 90%
Activity [18]: < 50%
Activity [19]: < 50%
Activity [20]: > 50%
Activity [21]: < 50%
Activity [22]: > 50%
Activity [23]: > 50%
Activity [24]: < 50%
Activity [25]: < 50%
EC50 [26]: 1390 nM
inhibition [27]: > 90%
IC50 [3]: 2 nM
Activity [28]: < 50%
Activity [29]: > 50%
Activity [30]: > 50%
Compound: CN1CCc2cc(Cl)c(Nc3nc(Nc4ccccc4S(=O)(=O)N(C)C)c4c(-c5cccnc5)c[nH]c4n3)cc2C1

IC50 [3]: 4 nM
Compound: COc1cc2c(cc1Nc1nc(Nc3ccccc3S(=O)(=O)N(C)C)c3c(-c4ccoc4)c[nH]c3n1)CN(C)CC2

IC50 [3]: 9 nM
Compound: COc1cc2c(cc1Nc1nc(Nc3ccccc3S(=O)(=O)N(C)C)c3c(-c4cnn(C)c4)c[nH]c3n1)CN(C)CC2

IC50 [3]: 3.5 nM
Compound: COc1cc2c(cc1Nc1nc(Nc3ccccc3S(=O)(=O)N(C)C)c3c(-c4c[nH]nc4C)c[nH]c3n1)CN(C)CC2

IC50 [3]: 6 nM
Compound: CN1CCc2cc(Nc3nc(Nc4ccccc4S(=O)(=O)N(C)C)c4c(-c5cccnc5)c[nH]c4n3)ccc2C1

IC50 [3]: 3 nM
Compound: COc1cc2c(cc1Nc1nc(Nc3ccccc3S(=O)(=O)N(C)C)c3c(-c4cn[nH]c4)c[nH]c3n1)CN(C)CC2

IC50 [3]: 7.5 nM
Compound: COc1cc2c(cc1Nc1nc(Nc3ccccc3P(C)(C)=O)c3cc[nH]c3n1)CN(C)CC2

IC50 [3]: 4.5 nM
Compound: COc1cc2c(cc1Nc1nc(Nc3ccccc3S(=O)(=O)C(C)C)c3cc[nH]c3n1)CN(C)CC2

IC50 [3]: 5 nM
Compound: CN(C)S(=O)(=O)c1ccccc1Nc1nc(Nc2ccc(N3CCOCC3)cc2)nc2[nH]cc(-c3cccnc3)c12

IC50 [3]: 9 nM
Compound: COc1cc2c(cc1Nc1nc(Nc3ccccc3S(=O)(=O)N(C)C)c3c(-c4ccn(C)c(=O)c4)c[nH]c3n1)CN(C)CC2

IC50 [3]: 1.5 nM
Compound: CN1CCc2ccc(Nc3nc(Nc4ccccc4S(=O)(=O)N(C)C)c4c(-c5cccnc5)c[nH]c4n3)cc2C1

IC50 [3]: 7 nM
Compound: CCN(CC)S(=O)(=O)c1ccccc1Nc1nc(Nc2cc3c(cc2OC)CCN(C)C3)nc2[nH]ccc12

IC50 [3]: 4.5 nM
Compound: COc1cc(Nc2nc(Nc3ccccc3S(=O)(=O)N(C)C)c3c(-c4cccnc4)c[nH]c3n2)ccc1N1CCOCC1

IC50 [3]: 1 nM
Compound: COc1cc2c(cc1Nc1nc(Nc3ccccc3S(=O)(=O)N3CCC3)c3cc[nH]c3n1)CN(C)CC2

IC50 [3]: 5.5 nM
Compound: CCOc1cc(Nc2nc(Nc3ccccc3S(=O)(=O)N(C)C)c3c(-c4cccnc4)c[nH]c3n2)ccc1N1CCOCC1

IC50 [3]: 4.5 nM
Compound: COc1cc2c(cc1Nc1nc(Nc3ccccc3S(=O)(=O)N3CCCC3)c3c(-c4cccnc4)c[nH]c3n1)CN(C)CC2

IC50 [3]: 1.5 nM
Compound: COc1cc2c(cc1Nc1nc(Nc3ccccc3S(=O)(=O)N3CCCC3)c3cc[nH]c3n1)CN(C)CC2

IC50 [3]: 9.5 nM
Compound: COc1cc2c(cc1Nc1nc(Nc3ccccc3S(=O)(=O)N(C)C)c3c(-c4ccncc4)c[nH]c3n1)CN(C)CC2
